In patent US6743895B1, “Bone stimulating factor” (Osteopharm Inc., priority 1995, dated 2004):
Residues, ends and D or L forms follow the SMILES beside them.

Key:
[1] = test system: parathyroidectomized rats; test: Histological evaluation of selected tissues (toxicity experiments); assay type: in vivo, rat; details: miniosmotic pump, about 25 μg per day
Experimental: A miniosmotic pump (Alzet) was loaded with about 1.5 ml of the chemically synthesized peptide having an N-terminal acetyl group (SEQ ID NO:2) in 0.1% acetic acid so as to give a calculated daily delivery of about 25 μg per day. A pump was implanted under the subcutaneous fascia of the dorsal aspect of the left side of the thorax of five rats which had been parathyroldectomized seven days earlier. Five similarly parathyroldectomized rats received similar implants containing only 0.1% acetic acid. Five intact rats were also used as controls.
Histological evaluation of selected tissues of the five rats of each of the groups indicated in Table One were carried out microscopically.

ovariectomized rats = test: Autopsy after eight week administration to ovariectomized rats; assay type: in vivo, rat; details: 100 μg s.c. every 24 hours for eight weeks
Experimental: Eight weeks after ovariectomization, five ovariectomized rats were injected subcutaneously with 100 μl of a 0.1% acetic acid solution containing 100 μg of the chemically synthesized peptide in which the N-terminal amino group was modified with an acetyl group (SEQ ID NO:2). This was done every 24 hours for eight weeks. On day 54, a tetracycline hydrochloride solution was injected intramuscularly into the right gluteus maximus of each rat so as to give 24 mg per Kg of body weight, as described previously. On day 56, a second dose of tetracycline hydrochloride was injected and the rats were sacrificed on the 57th day.
Post-mortem blood was taken by cardiac puncture and serum frozen until analyzed. An autopsy was performed on each rat.

Autopsy findings (ovariectomized rats): No obvious pathology was observed
SMILES: CC[C@H](C)[C@H](NC(=O)CNC(C)=O)C(=O)NCC(=O)N[C@@H](CCCCN)C(=O)N[C@@H](CCCNC(=N)N)C(=O)N[C@H](C(=O)N[C@@H](CC(N)=O)C(=O)N[C@@H](CCC(=O)O)C(=O)N[C@@H](Cc1c[nH]cn1)C(=O)N[C@H](C(=O)N[C@@H](C)C(=O)N[C@@H](CC(=O)O)C(=O)N[C@@H](CS)C(=O)N[C@@H](CCCCN)C(=O)N[C@H](C(=O)N[C@@H](CCCCN)C(=O)N1CCC[C@H]1C(=O)N[C@@H](CC(N)=O)C(=O)N[C@H](C(=O)N[C@@H](CC(C)C)C(=O)N[C@@H](Cc1c[nH]cn1)C(=O)N[C@@H](CCCCN)C(=O)N[C@@H](CCCCN)C(=O)N[C@@H](C)C(=O)N[C@@H](C)C(=O)N[C@@H](CCC(=O)O)C(=O)N[C@H](C(=O)N[C@@H](CC(C)C)C(=O)N[C@@H](CCSC)C(=O)N[C@H](C(=O)N[C@@H](CC(C)C)C(=O)N[C@@H](CC(=O)O)C(=O)N[C@@H](CCC(N)=O)C(=O)N[C@@H](CC(N)=O)C(=O)N[C@@H](CCC(N)=O)C(=O)N1CCC[C@H]1C(=O)O)C(C)C)[C@@H](C)O)[C@@H](C)O)[C@@H](C)CC)[C@@H](C)O)[C@@H](C)O [SEQ ID NO:2] (Ac-GIGKRTNEHTADCKIKPNTLHKKAAETLMVLDQNQP-OH)
Histological evaluation of selected tissues [1]: No evidence of toxic lesions
